Assay results from patent US20240360194A1, “New Peptides as Potent and Selective GIP Receptor Agonists” (Sanofi, priority 2021, published 2024).
Numbered stars: 1 amine (or outer) side, 2 acyl side, 3 side chain; on linkers, the order of the positions; unused ones are H or OH. Square brackets hold non-standard residues; d marks the D form. Side chains are listed from the residue outwards. Peptide text beside a SMILES is read from it. * marks the point of attachment. C18 diacid = O=C(O)CCCCCCCCCCCCCCCCC(=O)*; γGlu = O=C(O)[C@H](CCC(=O)[*:2])N[*:1]; AEEA = NCCOCCOCC(=O)O; Aib = CC(C)(N)C(=O)O

Columns and labels:
[1] = ThT assay for the assessment of physical stability (fibrillation); assay type: physicochemical; details: ThT buffer system A: 100 mM phosphate buffer pH 7.4; 3 mg/ml, 37° C., shaking
Outline: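 Peptide at 3 mg/ml in 100 mM phosphate buffer pH 7.4 with 100 μM ThT, stressed at 37° C. by cycles of 10 sec shaking at 960 rpm and 50 sec rest. Fluorescence read every 20 min, eight replicates; lag time (h) to fibril onset derived from sigmoidal kinetics.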

human GIP receptor = target: T1, human GIP receptor (Homo sapiens, UniProt P48546); assay: In vitro cellular cAMP assay for GIP receptor efficacy (human adipocytes); assay type: cell-based
T1 construct: human adipocytes endogenously expressing the human GIP receptor; host or cells: human preadipocytes (Lonza) differentiated to adipocytes
T1 sequence (P48546 22-466): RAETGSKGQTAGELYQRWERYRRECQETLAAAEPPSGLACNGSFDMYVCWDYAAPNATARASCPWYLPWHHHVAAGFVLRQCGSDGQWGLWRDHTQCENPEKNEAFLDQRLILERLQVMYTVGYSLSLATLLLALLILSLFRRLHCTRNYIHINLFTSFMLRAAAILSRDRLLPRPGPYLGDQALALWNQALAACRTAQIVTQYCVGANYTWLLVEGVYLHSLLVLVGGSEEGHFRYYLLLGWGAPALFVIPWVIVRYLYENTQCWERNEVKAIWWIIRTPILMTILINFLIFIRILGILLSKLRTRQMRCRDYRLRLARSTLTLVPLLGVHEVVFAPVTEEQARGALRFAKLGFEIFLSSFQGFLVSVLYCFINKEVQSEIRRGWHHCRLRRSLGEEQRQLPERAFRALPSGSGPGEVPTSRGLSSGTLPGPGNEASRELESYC
Outline: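 Human preadipocytes expanded, then differentiated 6 days (insulin, dexamethasone, PPARγ agonist, 200 μM IBMX, L-thyroxine) before plating at 5000 cells/well. Test compound applied 30 min at room temperature; cAMP measured by HTRF after 1 h with lysis-buffer reagents, read as 665/620 nm fluorescence ratio.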

[2] = Chemical stability assessment (UHPLC-UV purity loss on storage in solution); assay type: physicochemical; details: Chemical stability buffer system A: 20 mM phosphate buffer pH 7.4; ~300 μM
Outline: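 Peptides dissolved at ~300 μM (purity-corrected) in 20 mM phosphate pH 7.4, or 8 mM phosphate pH 7.4 with 14 mg/ml propylene glycol and 5.5 mg/ml phenol; filtered, stored 28 days at 5 and 40 °C. Supernatant analysed by UHPLC-UV; stability expressed as relative purity loss.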

SMILES: CC[C@H](C)[C@H](NC(=O)[C@H](CCCNC(=N)N)NC(=O)[C@H](CC(=O)O)NC(=O)[C@H](CC(C)C)NC(=O)C(C)(C)NC(=O)[C@@H](NC(=O)[C@H](CO)NC(=O)[C@H](CC(C)C)NC(=O)[C@H](CC(=O)O)NC(=O)[C@H](CO)NC(=O)[C@@H](NC(=O)[C@H](Cc1ccccc1)NC(=O)[C@@H](NC(=O)CNC(=O)[C@H](CCC(=O)O)NC(=O)C(C)(C)NC(=O)[C@@H](N)Cc1ccc(O)cc1)[C@@H](C)O)[C@@H](C)CC)[C@@H](C)CC)C(=O)N[C@@H](CCCCNC(=O)COCCOCCNC(=O)COCCOCCNC(=O)CC[C@H](NC(=O)CCCCCCCCCCCCCCCCC(=O)O)C(=O)O)C(=O)N[C@@H](CCC(N)=O)C(=O)NC(C)(C)C(=O)N[C@@H](CCC(=O)O)C(=O)N[C@@H](Cc1ccccc1)C(=O)N[C@H](C(=O)N[C@@H](CCC(=O)O)C(=O)N[C@@H](Cc1c[nH]c2ccccc12)C(=O)N[C@@H](CC(C)C)C(=O)N[C@@H](CC(C)C)C(=O)N[C@@H](C)C(=O)N[C@@H](CCC(N)=O)C(=O)NCC(=O)N1CCC[C@H]1C(=O)N[C@@H](CO)C(=O)N[C@@H](CO)C(=O)NCC(=O)N[C@@H](C)C(=O)N1CCC[C@H]1C(=O)N1CCC[C@H]1C(=O)N1CCC[C@H]1C(=O)N[C@@H](CO)C(N)=O)[C@@H](C)CC [SEQ ID NO: 37, H2N-Y-Aib-E-G-T-F-I-S-D-L-S-I-Aib-L-D-R-I-K[{AEEA}2-gGlu-C18OH]-Q-Aib-E-F-I-E-W-L-L-A-Q-G-P-S-S-G-A-P-P-P-S-NH2] (H-Y[Aib]EGTFISDLSI[Aib]LDRIK([AEEA-AEEA-γGlu-C18 diacid])Q[Aib]EFIEWLLAQGPSSGAPPPS-NH2)
- Increase in FI [1]: no
- Lag time before increase [1]: >45 h
- EC50 (human GIP receptor; read-out: hGIPR EC50): 0.5 nM
- Emax (human GIP receptor; read-out: hGIPR Emax): 113%
- Relative purity loss over 28 days at 40° C. [2]: 5.3%
